In patent publication US20100003217A1, “Compounds and Pharmaceutical Compositions for the Treatment of Viral Infections” (priority 2008, published 2010):

Assays:
[1] = test system: HCV genotype 1b replicon (Zluc cells); experiment: HCV luciferase replicon assay; type: cell-based, hepatitis C virus; conditions: 3 days
Protocol: The HCV luciferase replicon assay measures the ability of a test compound to inhibit HCV replication in cell culture after 3 days of treatment in a human hepatoma cell line (Huh-7) bearing the HCV genotype 1b replicon and a luciferase-neomycin phosphotransferase fusion gene. The inhibition of HCV replication was measured by quantification of luciferase protein expression. The HCV luciferase replicon was constructed by fusing a luciferase gene to the amino terminus of the neomycin phosphotransferase gene of the ZS11 HCV replicon. The ZS11 HCV replicon (Zhu Q, Guo J-T, and Seeger C, 2003) is derived from the SP1 replicon, but contains three cell culture-adapted mutations: E1202G (NS3), S22041 (NS5A), and D2254E (NS5A). These mutations allow for efficient in vitro replication. The luciferase reporter gene was amplified from the pGL4.13[luc2/SV40] vector (Promega Corp.). The replicon resulting from the luciferase-neomycin fusion (ZS11-luc) was stably-transfected into Huh-7 cells, yielding the Zluc cell line.
(§1) The luciferase replicon assay is summarized as follows: Solid white 96-well tissue culture plates (BD Falcon) were seeded with Zluc cells. Antiviral compound solutions were made up freshly in medium as 2×-concentrated stocks. Eight additional 3-fold drug dilutions were prepared from these stocks in medium for a total of 9 dilutions. At least four hours after Zluc cells were seeded, drug treatment was initiated by adding one volume of each 2×-concentrated drug dilution to one volume of cells/medium in the tissue culture plates. Cells were then incubated for 3 days at 37° C./5% CO2.
The media/compound was then removed from the plates and the ONE-glo Luciferase assay reagent (Promega) was added to each well. The assay plates were shaken for 3 minutes at room temperature and luciferase activity for each well was measured with a 1 sec read time on the Victor^3V multilabel counter using a 700 nm cut-off filter (Perkin Elmer). EC50 values were calculated from dose response curves from the resulting best-fit equations determined by Microsoft Excel and XLfit 4.1 software.

Zluc cells = experiment: Cytotoxicity assay (MTS), Zluc cells; type: cell-based, human
Protocol: (§2) The cytotoxicity assay measures the viability of cells after treatment with a test compound for 3 days in either GS4.1 cells or Zluc cells. […] The cytotoxicity assay is summarized as follows. Ninety-six-well tissue culture plates were seeded with GS4.1 or Zluc cells. Antiviral compound solutions were made up freshly in medium as 2×-concentrated stocks. Eight additional 3-fold drug dilutions were prepared from these stocks in medium for a total of 9 dilutions. At least four hours after the cells were seeded, drug treatment was initiated by adding one volume of each 2×-concentrated drug dilution to one volume of cells/medium in the tissue culture plates. Cells were then incubated for 3 days at 37° C./5% CO2. After 3 days of treatment, the CellTiter 96® Aqueous One Solution cell proliferation assay (Promega) was performed by adding the MTS solution to each well. The plates were then incubated at 37° C./5% CO2 for 3.5 hours. Plates were then read in a Victor^3V 1420 multilabel counter (Perkin Elmer) and CC50 concentrations were determined using Microsoft Excel and XLfit 4.1 software.

[2] = test system: HCV genotype 1b replicon (GS4.1 cells); experiment: HCV replicon assay (NS4A ELISA); type: cell-based, hepatitis C virus; conditions: 3 days
Protocol: The biological activity of Compound 1, diastereomer 1 and diastereomer 2 was measured by monitoring expression of the NS4A protein by enzyme-linked immunosorbent assay (ELISA) and by luciferase assay as described below:
The HCV replicon assay measures the ability of a test compound to inhibit HCV replication in cell culture after 3 days of treatment in a human hepatoma cell line (Huh-7) bearing the HCV genotype 1b replicon (GS4.1 cells). The inhibition of HCV replication was measured by quantification of viral NS4A protein using an enzyme-linked immunosorbent assay (ELISA). […] Additionally, the replicon contains the neomycin phosphotransferase gene under the control of the HCV promoter (Source: Dr. Christoph Seeger, Fox Chase Cancer Center, Philadelphia, Pa.).
as §1, with “The NS4A ELISA” for “The luciferase replicon”, “as follows. Ninety-six-well” for “as follows: Solid white 96-well”, “plates” for “plates (BD Falcon)”, “with GS4.1” for “with Zluc”, “after GS4.1” for “after Zluc”, “each 2× concentrated” for “each 2×-concentrated”
The media/compound was then removed from the plates and cells were fixed with acetone:methanol, washed three times with a wash solution, and then blocked for 1 hour with 10% fetal bovine serum in a balanced salt solution. Cells were washed three times and incubated with an anti-hepatitis C NS4A monoclonal antibody (Virogen Corp.) for 2 hours at 37° C. […] The reaction was stopped with diluted sulfuric acid (Mallinckrodt Chemicals) and absorbance measured on a Victor^3V 1420 multilabel counter (Perkin Elmer). EC50 values were calculated from dose response curves from the resulting best-fit equations determined by Microsoft Excel and XLfit 4.1 software.

GS4.1 cells [3] = experiment: Cytotoxicity assay (MTS), GS4.1 cells; type: cell-based, human; conditions: 3 days (NS4A-ELISA Assay)
Protocol: as §2

GS4.1 cells [4] = experiment: Cytotoxicity (MTS assay), GS4.1 cells, Example 18; type: cell-based, human; conditions: wild-type or S282T replicon cells treated with up to 100 μM
Protocol: (§3) Cells were plated and treated with inhibitors as described above.

[5] = Cytotoxicity (MTS assay), GS4.1 cells, Example 18; type: cell-based, human; conditions: human, GS4.1 cells (wild-type); GS4.1 (wild-type), MTS assay, N = 3
Protocol: as §3

[6] = test system: HCV genotype 1b replicon (GS4.1 cells); experiment: In vitro combination of Compound 1 and ribavirin on HCV replicon (NS4A ELISA; MacSynergy II, CombiTool, CalcuSyn); type: cell-based; conditions: Hepatitis C virus, 72 h, single-drug titration experiments, three days
Protocol: This setup was run in duplicate in each 96-well plate.
Cells were incubated with inhibitors for three days at 37° C./5% CO2.
After three days of drug treatment, media was removed from the plates via gentle tapping and the cells were fixed to the plates with 100 μL/well of 1:1 acetone:methanol.
After one minute of incubation at room temperature, plates were washed three times with 100 μL/well of ELISA wash solution and then blocked with 150 μL/well of 10% FBS-TNE.
After a one hour incubation period at 37° C., each plate was washed three times with 100 μL/well of ELISA wash solution. Color development was then initiated with 100 μL/well of OPD solution.
After a 30 minute incubation period in the dark at room temperature, reactions were stopped by adding 100 μL of 2NH2SO4 to each well.
The absorbance was measured at 490 nm on a Victor^3 V 1420 multilabel counter (Perkin Elmer).

[7] = test system: S282T HCV replicon (184R-A cells); experiment: microbe, parasite or virus in culture; conditions: Hepatitis C virus
Protocol: 3. The 184R-A cell line was derived by culturing wild-type replicon cells in the presence of 1 to 5 μM of Compound 1 for >100 days.
(§4) 1. […] Huh-7 cells were seeded into column 1 of each plate at a similar density.
(§5) 2. […] Eight additional 3-fold serial dilutions of each compound were prepared from the 2× stock in assay medium. Final drug concentrations ranged from 100 to 0.015 μM.
(§6) 3. […] This setup was run in duplicate in each 96-well plate.
(§7) 4. Cells were incubated with inhibitors for three days at 37° C./5% CO2.
(§8) 1. After three days of drug treatment, media was removed from the plates via gentle tapping and the cells were fixed to the plates with 100 μL/well of 1:1 acetone:methanol.
(§9) 2. After one minute of incubation at room temperature, plates were washed three times with 100 μL/well of ELISA wash solution and then blocked with 150 μL/well of 10% FBS-TNE.
(§10) 3. After a one hour incubation at room temperature, plates were washed three times with 100 μL/well of ELISA wash solution, and then 100 μL/well of mouse anti-hepatitis C […] mAb (1 mg/mL stock diluted 1:1,500 in 10% FBS-TNE) was added.
(§11) 4. Following 2 hours of incubation at 37° C., plates were washed three times with 100 μL/well of ELISA wash solution, and then 100 μL/well of HRP-goat anti-mouse antibody (diluted 1:4,000 in 10% FBS-TNE) was added.
(§12) 4. After a one hour incubation period at 37° C., each plate was washed three times with 100 μL/well of ELISA wash solution. Color development was then initiated with 100 μL/well of OPD solution.
(§13) 5. After a 30 minute incubation period in the dark at room temperature, reactions were stopped by adding 100 μL of 2NH2SO4 to each well.
(§14) 6. The absorbance was measured at 490 nm on a Victor^3 V 1420 multilabel counter (Perkin Elmer). The percent inhibition of HCV replicon replication was calculated for each drug using an average of the duplicate wells.

[8] = Cytotoxicity (MTS assay), 184R-A cells; type: cell-based; conditions: human, 184R-A cells (S282T), 184R-A (S282T), N = 3
Protocol: as §3

[9] = Cytotoxicity (MTS assay), 184R-D2 cells; type: cell-based; conditions: human, 184R-D2 cells (S282T), 184R-D2 (S282T), N = 3
Protocol: as §3

[10] = test system: wild-type HCV replicon (GS4.1 cells); experiment: microbe, parasite or virus in culture; conditions: Hepatitis C virus
Protocol: as §4, §5, §6, §7, §8, §9, §10, §11, §12, §13, §14

[11] = test system: S282T HCV replicon (184R-D2 cells); experiment: microbe, parasite or virus in culture; conditions: Hepatitis C virus
Protocol: as §4, §5, §6, §7, §8, §9, §10, §11, §12, §13, §14

GS4.1 cells [12] = experiment: Cytotoxicity of Compound 1 and RBV on GS4.1 cells using MTS assay (combination study); conditions: three days, 0.6× to 1.5× EC50, alone or in combination
Protocol: The readout of the assay was measured by the bioreduction of the yellow MTS tetrazolium compound to a purple formazan product. This conversion is mediated by NADPH or NADH in metabolically active cells and is therefore directly proportional to the number of live cells in a culture. Plates were setup as described above.
Cells were plated and treated with inhibitors using the drug matrix described above.
After three days of drug treatment, 20 μL of MTS was added to each well, and then plates were incubated at 37° C./5% CO2.

What does the source list for `CC(C)(CO)C(=O)SCCOP(=O)(NCc1ccccc1)OC[C@H]1O[C@@H](n2cnc3c(=O)[nH]c(N)nc32)[C@](C)(O)[C@@H]1O` (single isomer, unassigned; diastereomer 2) [Diastereomer 2]?
EC50 [1]: 0.0568 ± 0.0006 µM; CC50 (Zluc cells): > 100 µM; EC50 [2]: 0.244 ± 0.098 µM; CC50 (GS4.1 cells [3]): > 100 µM

For `NC(=O)c1ncn([C@@H]2O[C@H](CO)[C@@H](O)[C@H]2O)n1` [RBV, ribavirin, reference compound], which “in vitro cytotoxicity (MTS)” value (GS4.1 cells [4]) is on record?
Its value is “no evidence of in vitro cytotoxicity”.

And the CC50 at 3 days [5]?
Its CC50 at 3 days is greater than 100 µM.

And the EC50 [6]?
The EC50 was 21.8 ± 3.6 µM.

And the EC50 [7]?
The EC50 was 12.3 ± 1.9 µM.

What about the CC50 at 3 days [8] of the same compound?
The CC50 at 3 days was greater than 100 µM.

What about the CC50 at 3 days [9] of the same compound?
The CC50 at 3 days was greater than 100 µM.

What about the EC50 [10] of the same compound?
Its EC50 is 38 ± 2.8 µM.

What about the EC50 [11] of the same compound?
The EC50 was 17 ± 3.5 µM.

And the “in vitro cytotoxicity (MTS)” value (GS4.1 cells [12])?
Its value is “no evidence of in vitro cytotoxicity”.
